Laboratory results from PMC11434026, “Development and Validation of an LC-MS/MS Assay for the Quantitation of MO-OH-Nap Tropolone in Mouse Plasma: Application to In Vitro and In Vivo Pharmacokinetic Studies” (Molecules, 2024).

Assay: In vitro metabolic stability in mouse liver microsomes
Format: in vitro ADME
Details: MLM
Protocol: Metabolic stability was assessed using mouse, rat, and human liver microsomes (XenoTech, LLC, Lenexa, KS, USA) for phase I metabolism. Briefly, A reaction solution was prepared by mixing […] of PBS (100 mM, pH 7.4), 25 µL of microsomal protein (20 mg/mL), MgCl2 (5 µL; 10 mM), and 50 µL of NADPH (2 mM). The final volume (0.5 mL) was pre-incubated for 10 min in a 37 °C water bath at 60 rpm. An aliquot of MO-OH-Nap (2 µL from 1 µg/mL stock) was spiked into the above solution to initiate the reaction. Aliquots of (50 µL) were collected at time intervals (0, 5, 15, 20, 30, 45, and 60 min) and quenched with 300 µL of ACN, […]. Afterwards, 10 µL of IS stock (1.0 µg/mL) was spiked in each sample then vortexed (5 min) and centrifuged at 10,800 rpm (13,000× g) for 15 min. Samples were vortexed and centrifuged at 10,800 rpm (13,000× g) for 15 min, the supernatant was collected and transferred to an HPLC vial and 10 µL were injected into the LC-MS/MS system. Testosterone and diclofenac were used as positive and negative controls to ensure that liver microsomes and incubation conditions were appropriate for conducting metabolism studies.

Q: With `O=c1c(O)ccccc1-c1ccc2ccccc2c1` [MO-OH-Nap, MO-OH-Nap tropolone] as the compound, how does the metabolic depletion (NADPH, 60 min) read?
A: Its metabolic depletion is < 15%.

Q: And the parent drug remaining (all time points to 60 min)?
A: Its parent drug remaining is > 95%.
